The values below come from patent publication US20040138204A1, “Compositions and methods for pain reduction” (priority 2002, published 2004).

Assay [1] deals with AMPA, NMDA and kainate receptors, dorsal horn laminae I-III. The assay can be described thus: Immunohistochemistry and densitometry of dorsal horn glutamate receptor expression after epidural glutamate infusion. Format: in vivo, rat. As for the experimental part: Immunohistochemical studies show expression of dorsal horn glutamate receptors in painful conditions involving the lower extremity in the rat. A relatively high concentration (2 mmol/L) of glutamate was infused for 72 hours (same infusion time period as in previous experiments) and densitometry was performed at 40× AMPA, NMDA and kainate for receptor expression at dorsal horn laminae I-III bilaterally, at spinal cord levels where the dorsal root ganglion input would enter the spinal cord dorsal horn, to determine whether receptor expression was increased. The microscopist was blinded to the nature of the sample.

Assay [2] deals with rat hind paw withdrawal (nociception). The assay can be described thus: Von Frey fiber behavioral test after epidural glutamate infusion. Format: in vivo. Conditions: epidural infusion 2.0-0.0002 mM for 72 hours; most prominent on day 3, also day 1. The method, then: Behavioral experiments have been completed at a wider range of concentrations. Rats are infused with epludial glutamate at concentrations of 2.0, 0.2, 0.02, 0.002 and 0.0002 mM for 72 hours (3 days). Von Frey fiber examinations were performed on left and right hind paws 24 hours before infusion and then 24, 72, and 144 hours after onset of glutamate infusion. The experimenter was blinded as to which infusate was used. Contralateral to ipsilateral differences were analyzed with respect to concentration of glutamate infusion and hours post-procedure. […] The response was most significant at the 0.02 mM concentration but present at 0.002 and 0.2 mM concentrations. […]
Behavioral Tests—The von Frey Fiber mechanical allodynia assay is performed 24 hours preoperatively and 24, 72, and 144 hours postoperatively. […] Starting with 0.6 grams of force and working up to 1, 1.4, 2, 4, 6, 8, 10, 15, and finally 26, each paw's response is recorded. […]
The protocol has the experimenter tap the bottom surface of the paw with one fiber at a time for six seconds each. […] If a response is not recognized, then the next fiber (one that elicited 1.0 grams of force) is applied, and so on in increasing order of force until a paw withdrawal response was recorded. After the initial response is recorded, the experimenter completes the testing procedure by testing the same paw with fibers in descending order of force. […]

The mark [3] stands for this setting: 2 mmol/L glutamate, 72 hours, p<0.01.

As to `N[C@@H](CCC(=O)O)C(=O)O` [glutamate], the “AMPA, NMDA and kainate receptor expression versus saline-infused controls” value in assay [1] (2 mmol/L glutamate infused for 72 hours, dorsal horn laminae I-III, two-tailed T test) is given as “upregulation of expression over saline-infused controls”. In assay [1] (setting [3]), the “AMPA receptor expression ipsilateral versus contralateral” value is “upregulation of receptor expression ipsilateral to the side of infusion” and the “NMDA receptor expression ipsilateral versus contralateral” value is listed as “upregulation of receptor expression ipsilateral to the side of infusion”. In addition, the “kainate receptor expression ipsilateral versus contralateral” value in assay [1] (2 mmol/L glutamate, 72 hours, p<0.05) was “upregulation of receptor expression ipsilateral to the side of infusion”. Moreover, the “von Frey contralateral to ipsilateral difference (hypersensitivity)” value in assay [2] is “significant hypersensitivity postoperatively”.
